# Assays:
# [1] = molecular target: T1, protein tyrosine phosphatase 1B (PTP1B) (Homo sapiens, UniProt P18031); experiment: PTP1B inhibitory assay (pNPP hydrolysis); assay type: biochemical; details: pNPP substrate, pH 6.0, 37 °C, 30 min
# T1 sequence (P18031 1-435): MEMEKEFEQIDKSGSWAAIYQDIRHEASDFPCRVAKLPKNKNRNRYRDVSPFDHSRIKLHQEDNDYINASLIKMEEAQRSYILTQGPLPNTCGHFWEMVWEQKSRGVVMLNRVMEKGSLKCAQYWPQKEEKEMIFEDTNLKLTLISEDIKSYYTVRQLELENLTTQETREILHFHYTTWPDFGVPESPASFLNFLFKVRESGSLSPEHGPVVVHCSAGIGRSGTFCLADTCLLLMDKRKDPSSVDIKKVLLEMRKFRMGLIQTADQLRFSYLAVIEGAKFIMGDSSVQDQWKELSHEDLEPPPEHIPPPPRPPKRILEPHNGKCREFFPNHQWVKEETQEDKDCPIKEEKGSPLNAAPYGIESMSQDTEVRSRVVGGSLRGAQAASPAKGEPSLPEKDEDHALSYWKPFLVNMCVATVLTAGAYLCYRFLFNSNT
# Procedure: Protein tyrosine phosphatase 1B (PTP1B) inhibitory activity was determined by measuring the rate of hydrolysis of a substrate, p-nitrophenyl phosphate (pNPP, Sigma, St. Louis, MO, USA) according to the published method with a slight modification. Briefly, PTP1B (100 μL of 0.5 μg/mL stock solution, Enzo Life Sciences, Farmingdale, NY, USA) in 50 mM citrate buffer (pH 6.0) containing 0.1 M NaCl, 1 mM dithiothreitol (DTT), and 1 mM N,N,N′,N′-ethylenediamine tetraacetate (EDTA) were added to each well of a 96-well plastic plate (Corning Inc., Corning, NY, USA). […] The reaction was initiated by the addition of pNPP (100 μL of 4.0 mM stock solution) in the citrate buffer, incubated at 37 °C for 30 min, and terminated with the addition of 10 μL of a stop solution (10 M NaOH). The optical density of each well was measured at 405 nm using an MTP-500 microplate reader (Corona Electric Co., Ltd., Ibaraki, Japan). PTP1B inhibitory activity (%) is defined as [1 − (ABSsample − ABSblank)/(ABScontrol − ABSblank)] × 100, where ABSblank is the absorbance of wells containing only the buffer and pNPP, ABScontrol is the absorbance of p-nitrophenol liberated by the enzyme in the assay system without a test sample, and ABSsample is that with a test sample. The assays were performed in two duplicate experiments for all test samples. Oleanolic acid (Tokyo Chemical Industry, Tokyo, Japan), a known phosphatase inhibitor [15], was used as a positive control.
# in vitro [2] = assay type: cell-based; details: human
# Procedure: (§1) HCT-15 and Jurkat cells were obtained from the Center for Biomedical Research, Institute of Development, Aging, and Cancer, Tohoku University (Miyagi, Japan). The cell lines were cultured in RPMI-1640 medium. The medium was supplemented with 10 % fetal bovine serum, 100 U/mL penicillin, and 100 μg/mL streptomycin. Exponentially growing cells, cultured in a humidified chamber at 37 °C containing 5.0 % CO2, were used for the experiments. Cytotoxic activity was evaluated using the colorimetric MTT assay. HCT-15 (1.0 × 10^4 cells in 100 μL) or Jurkat cells (2.0 × 10^4 cells in 100 μL) were added to each well of a 96-well plastic plate. A sample (1.0 μL in MeOH) was added to each well to make the final concentrations from 0 to 39–47 μM, and the cells were incubated for 48 h at 37 °C. MTT (10 μL of 5.5 mg/mL stock solution) and a cell lysate solution (90 μL, 40 % N,N-dimethylformamide, 20 % sodium dodecyl sulfate, 2.0 % CH3COOH and 0.030 % HCl) were added to each well, and the plate was shaken thoroughly by agitation at room temperature for overnight. The optical density of each well was measured at 570 nm using an MTP-500 microplate reader.
# in vitro [3] = assay type: cell-based; details: human; remark: listed apart in the source
# Procedure: as §1
# in vitro [4] = assay type: cell-based; details: human; remark: listed apart in the source
# Procedure: Cytotoxic activity against Huh-7 cells was assessed by the MTT assay, a modification of our previously described method. Following the treatment of cells with test samples, 10 μL of MTT (5.0 mg/mL saline) was added to each well, the samples were incubated for 90 min at 37 °C and centrifuged (300g for 5 min), and the supernatant was aspirated off. The cells were lysed and solubilized by the addition of 100 μL of 0.040 N HCl in 2-propanol. The absorbance of each well was determined at 590 nm using an Inter-med model NJ-2300 Microplate Reader (Cosmo Bio Co., Ltd., Tokyo, Japan). Survival (%) was calculated relative to the control.
Compound,IC50 [1] [nM],IC50 at 48 h (in vitro [2]) [nM],IC50 at 48 h (in vitro [3]) [nM],IC50 (in vitro [4]) [nM]
"COc1cc(Br)cc(Br)c1Oc1cc(Br)cc(Br)c1OC [Compound 2, 3,5-dibromo-2-(3′,5′-dibromo-2′-methoxyphenoxy)-1-methoxybenzene]",1700,> 46000,> 46000,48000
"CCCC(=O)Oc1cc(Br)cc(Br)c1Oc1cc(Br)cc(Br)c1OC [Compound 4, 3,5-Dibromo-2-(3′,5′-dibromo-2′-methoxyphenoxy)phenyl butanoate]",680,,,
"COc1c(Br)cc(Br)cc1Oc1c(O)cc(Br)cc1Br [Compound 1, 2-(3′,5′-dibromo-2′-methoxyphenoxy)-3,5-dibromophenol]",850,,,32000
"CCCCCC(=O)Oc1cc(Br)cc(Br)c1Oc1cc(Br)cc(Br)c1OC [Compound 5, 3,5-Dibromo-2-(3′,5′-dibromo-2′-methoxyphenoxy)phenyl hexanoate]",690,,,
"COc1c(Br)cc(Br)cc1Oc1c(Br)cc(Br)cc1OC(=O)c1ccccc1 [Compound 6, 3,5-Dibromo-2-(3′,5′-dibromo-2′-methoxyphenoxy)phenyl benzoate]",970,,,
"COc1c(Br)cc(Br)cc1Oc1c(Br)cc(Br)cc1OC(C)=O [Compound 3, 3,5-dibromo-2-(3′,5′-dibromo-2′-methoxyphenoxy)phenyl ethanoate]",620,,,
